From patent US7534766B2, “Glucuronide metabolites and epimers thereof of tigecycline” (Wyeth, priority 2004, dated 2009)

Experiments:
[1] = LC/MS detection of tigecycline and its metabolites in humans, dogs and/or rats; conditions: LC/MS of human serum, urine, feces and rat and dog plasma and urine
Experimental: Characterization of the tigecycline metabolites in human serum, urine and feces, and rat and dog plasma and urine was performed using LC/MS analysis (Table 5).

[2] = Stability of [14C]tigecycline during extraction from control human fecal homogenates; format: in vitro ADME
Text: Similar results were observed following the extraction of [^14C]tigecycline from control fecal homogenates. In these samples, [^14C]tigecycline accounted for 94% of the radioactivity prior to extraction and 68% following the extraction. There was a corresponding increase in the epimer of tigecycline, which represented 4% of the radioactivity prior to extraction and 23% following the extraction. […] Other minor products represented less than 1% of the radioactivity prior to the extraction and 4% following the extraction.
The stability of [^14C]tigecycline during the extraction process was determined in control human fecal homogenates spiked with [^14C]tigecycline at 5 μg/g of homogenate. […] Samples were extracted and analyzed by HPLC with radioactivity flow detection.

[3] = LC/MS characterization of tigecycline related compounds in human serum, urine and feces; format: in vivo; conditions: human, after single 50 mg IV [14C]tigecycline dose
Text: Three HPLC conditions were used during LC/MS analysis in this study. LC/MS Condition 1 was used for the majority of sample analyses for metabolite characterization and to isolate metabolite M3a from urine. LC/MS Condition 2 was used on selected samples to increase the retention time of glucuronide metabolites and for a co-chromatography experiment to confirm the identity of metabolites M8 and M9. LC/MS Condition 3 was used to analyze the polar metabolite M3a isolated from human urine.
The UV detector was set to monitor 340-360 nm. […] The flow rate was 0.2 mL/min. […] The linear mobile phase gradient is shown below.
Separations were accomplished on a Phenomenex Luna C18(2) column (250×2.0 mm, 5 μm) with a Uniguard C18 guard column (10×2 mm) (ThermoHypersil-Keystone). The flow rate was 0.2 mL/min. […] Mobile phase A was 0.02% trifluoroacetic acid in water (v/v) and mobile phase B was 0.02% trifluoroacetic acid in acetonitrile (v/v). The linear mobile phase gradient is shown below.
A Micromass Quattro Ultima triple quadrupole mass spectrometer (Waters Corp.) was operated in the positive ionization mode. LC/MS analysis with electrospray ionization (ESI) was conducted using a Z-spray interface. ESI-MS analysis of individual fractions from selected samples was conducted by direct infusion into a nanospray interface. Settings for the mass spectrometer are listed below.
Urine and feces samples were analyzed for tigecycline metabolites by LC/MS/MS analysis for precursors of product ions characteristic of tigecycline. Additionally, potential metabolites of tigecycline were searched for in the LC/MS data based upon results from previous studies in animals and humans.
Serum extracts were analyzed for tigecycline and selected metabolites by LC/MS/MS in the selected reaction monitoring (SRM) mode (LC/SRM) to reduce interference from endogenous components. […] The following tigecycline related components were monitored.

[4] = Safety and tolerability of intravenous tigecycline in healthy male volunteers; format: in vivo, human; conditions: IV 100-mg dose, five 50-mg doses, single 50-mg [14C]tigecycline dose
Text: The clinical protocol called for twelve subjects.

[5] = Mass balance: percent of [14C]tigecycline dose excreted in human urine and feces
Experimental: The concentration of tigecycline-related components in serum, urine and feces was calculated based on the total radioactivity concentrations reported elsewhere. These concentrations were converted to ng-tigecycline equivalents using the specific activity of the dose (1.00 μCi/mg). Using this value, the concentrations of the specific components were then estimated based on the distribution of radioactivity in the radiochromatograms.
An open-label, inpatient, multiple-dose tigecycline, single-dose [^14C]tigecycline metabolic disposition and mass balance study was performed in six healthy male volunteers. The clinical protocol called for twelve subjects. Of these twelve, six received the radioactive dose (subjects 1, 4, 5, 6, 7, and 8 with subject 8 later dropping out of the study.) Eligible subjects were selected based on inclusion/exclusion criteria, medical history, physical examination and additional procedures outlined in the study protocol. Each subject received a 100 mg loading dose on the morning of Day 1, followed by a 50 mg maintenance dose every 12 hours for an additional 5 doses. On the morning of study Day 4, six subjects received a single 50 mg dose of [^14C]tigecycline (50 μCi). Each tigecycline dose was administered via a 30-minute intravenous infusion.
Serum samples were collected for metabolite profiling prior to tigecycline dosing and 1, 4, 8, 24 and 48 hours following the [^14C]-labeled dose. For metabolite profiling, urine samples were collected at 0-4, 4-8, 8-24 and 24-48 hours and fecal samples were collected up to 48 hours following the [^14C]-labeled dose. Serum and urine samples, and fecal homogenates were shipped on dry ice to the Biotransformation Division of Drug Safety and Metabolism, Wyeth Research, Collegeville, Pa. The details of the sample collection and sample storage are described in the mass balance portion of the study. The 24-48 hour urine and fecal samples for subject #6 were incomplete since the subject withdrew from the study. While samples from this subject were used for metabolite profiling, the samples were not included in the mass balance calculations.

[6] = Estimated concentrations in rabbit serum by LC/MS (SRM) after intravenous tigecycline; format: in vivo, New Zealand White rabbit
Experimental: Three female New Zealand White rabbits, weighing between 3.9 and 4.3 kg at the time of dosing, were used. Animals were given food and water ad libitum. Animals were individually housed in standard cages. Rabbits were dosed at Wyeth Research, Chazy, N.Y. and samples shipped frozen to the Wyeth Research Biotransformation Department, Collegeville, Pa.
Standard curves for tigecycline, M3 and M9 were prepared in rabbit serum. Standard curves were prepared by adding the internal standard and synthetic tigecycline and metabolite standards to control plasma. Standard curve samples were prepared with tigecycline concentrations of 0, 10, 20, 50, 100, 200, 500 and 1000 ng/mL, with the linear range being […]. For 9-aminominocycline (M3), the concentrations were 0, 1, 5, 10, 20, 50, 100 and 200 ng/mL, with the linear range being 10 to 200 ng/mL. For N-acetyl-9-aminominocycline (M9), the concentrations were 1.6, 3.2, 6.4, 16, 32, 64 and 96 ng/mL, with the linear range being from 3.2 to 96 ng/mL. These samples were processed and analyzed as described above.
The column temperature was 25° C. The flow rate was 0.2 mL/min. […] Gradient 1 was used for metabolite identification (qualitative analysis).
Micromass MassLynx (version 4.0, Waters Corp.) was used for analysis of LC/MS data. The concentrations of tigecycline, 9-aminominocycline (M3) and N-acetyl-9-aminominocycline (M9) in serum were calculated based on the analyte to internal standard peak area ratios in the samples as compared to the standard curves generated in rabbit serum.

CC(C)(C)NCC(=O)O [Metabolite M3a, t-butylaminoacetic acid]
Species in which detected [1]: R, D, H | increase in percent of the radioactivity, control fecal homogenates ([2]; during the extraction): 4% | percent of the radioactivity, control fecal homogenates ([2]; following the extraction): 5% | percent of the radioactivity, control fecal homogenates ([2]; prior to extraction, 5 μg/g of homogenate): 1% | Matrix in which the compound was observed [3]: S, U, F

CN(C)c1cc(NC(=O)CNC(C)(C)C)c(O)c2c1C[C@H]1C[C@H]3[C@H](N(C)C)C(O)=C(C(N)=O)C(=O)[C@@]3(O)C(O)=C1C2=O [Tigecycline]
adverse event frequency: dyspepsia [4]: 17% | adverse event frequency: injection site inflammation [4]: 17% | adverse event frequency: nausea [4]: 75% | adverse event frequency: vomiting [4]: 50% | safety and tolerability [4]: generally safe and well tolerated | Species in which detected [1]: R, D, H | Percentage of Dose (mean ± standard deviation) excreted ([5]; Feces (0–48 hours), n = 5): 9.9 ± 7.9% | Percentage of Dose (mean ± standard deviation) excreted ([5]; Total Urine (0-48 hours), n = 5, ND = not detected): 14.8 ± 2.9% | Percentage of Dose (mean ± standard deviation) excreted ([5]; Total urine + feces (0–48 hours), n = 5): 24.7 ± 8.7% | Percentage of Dose (mean ± standard deviation) excreted ([5]; Urine 0–4 hours, ND = not detected): 7.1 ± 0.9% | Percentage of Dose (mean ± standard deviation) excreted ([5]; Urine 4–8 hours, ND = not detected): 2.4 ± 1.1% | Percentage of Dose (mean ± standard deviation) excreted ([5]; Urine 8–24 hours, ND = not detected): 3.3 ± 1.1% | Percentage of Dose (mean ± standard deviation) excreted ([5]; Urine 24–48 hours, n = 5, ND = not detected): 1.7 ± 0.7% | concentration at 0.5 h ([6]; 0.5 hr after 4 mg/kg IV tigecycline, pooled serum, female New Zealand White rabbits): 2020 ng/mL | concentration at 2 h ([6]; female, New Zealand White, 2 hr after 4 mg/kg IV tigecycline, pooled serum): 1040 ng/mL | concentration at 6 h ([6]; female, New Zealand White, 6 hr after 4 mg/kg IV tigecycline, pooled serum): 287 ng/mL | concentration at 1 h ([6]; female, New Zealand White, serum, at 1 hour, 4 mg/kg IV tigecycline): 2020 ng/mL | Matrix in which the compound was observed [3]: S, U, F
